According to ChEMBL document CHEMBL1132102, “Dysidiolide and related gamma-hydroxy butenolide compounds as inhibitors of the protein tyrosine phosphatase, CDC25” (Bioorg Med Chem Lett, 1999):

Assays:
[1] = target: T1, M-phase inducer phosphatase 3 (Homo sapiens, UniProt P30307); test: In vitro inhibitory activity against human Cell division cycle 25 degree C
T1 sequence (P30307 whole entry): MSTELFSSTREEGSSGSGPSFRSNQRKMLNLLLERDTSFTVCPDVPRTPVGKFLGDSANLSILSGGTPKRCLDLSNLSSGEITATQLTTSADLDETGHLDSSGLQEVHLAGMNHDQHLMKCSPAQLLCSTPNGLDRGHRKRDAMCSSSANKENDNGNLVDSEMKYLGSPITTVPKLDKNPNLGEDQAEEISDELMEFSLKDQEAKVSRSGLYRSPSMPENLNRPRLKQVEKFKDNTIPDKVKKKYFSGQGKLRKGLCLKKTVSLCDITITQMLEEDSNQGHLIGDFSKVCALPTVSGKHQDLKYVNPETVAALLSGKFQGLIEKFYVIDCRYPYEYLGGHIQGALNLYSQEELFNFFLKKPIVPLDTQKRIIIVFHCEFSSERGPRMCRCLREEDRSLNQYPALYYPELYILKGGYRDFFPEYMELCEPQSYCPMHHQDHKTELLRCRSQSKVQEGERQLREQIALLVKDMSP

[2] = target: T2, M-phase inducer phosphatase 2 (Homo sapiens, UniProt P30305); test: In vitro inhibitory activity against human Cell division cycle 25B
T2 sequence (P30305 whole entry): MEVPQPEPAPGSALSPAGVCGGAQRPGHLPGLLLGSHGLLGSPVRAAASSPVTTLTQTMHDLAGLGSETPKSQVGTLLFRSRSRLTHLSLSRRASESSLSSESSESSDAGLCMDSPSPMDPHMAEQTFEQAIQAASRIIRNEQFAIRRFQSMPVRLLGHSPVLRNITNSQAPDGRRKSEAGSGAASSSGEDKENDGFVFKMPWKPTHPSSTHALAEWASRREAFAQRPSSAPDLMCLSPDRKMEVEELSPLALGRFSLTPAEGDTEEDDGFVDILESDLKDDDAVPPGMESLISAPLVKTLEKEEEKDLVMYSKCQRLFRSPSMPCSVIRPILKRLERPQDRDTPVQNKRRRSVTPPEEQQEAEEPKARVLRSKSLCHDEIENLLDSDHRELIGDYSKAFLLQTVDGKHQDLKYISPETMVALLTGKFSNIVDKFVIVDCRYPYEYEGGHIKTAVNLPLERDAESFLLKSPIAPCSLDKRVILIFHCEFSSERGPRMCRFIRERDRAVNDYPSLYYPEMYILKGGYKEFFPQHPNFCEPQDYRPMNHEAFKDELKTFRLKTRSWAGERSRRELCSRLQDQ

IC50 [1]: > 2000 µM | IC50 [2]: > 2000 µM
SMILES: C=C(C)CCC[C@@]1(C)CCC[C@@]2(C)C1=CC[C@H](C)[C@]2(C)C[C@@H](O)C1=CC(=O)O[C@@H]1O (stereo in doubt; form 2)
